Reference: the NIST ThermoML archive (doi:10.1016/j.jct.2008.05.005)

Assay: xn = mol fraction of the nth substance listed
Details: Liquid, Vibrating tube method

CCCCn1cc[n+](C)c1.F[B-](F)(F)F [1-butyl-3-methylimidazolium tetrafluoroborate] + CO
mass density [kg/m3]
Details	348.15 K	373.15 K
620 kPa, x1 = 0.0433	–	797.86
620 kPa, x1 = 0.9102	–	1149.53
680 kPa, x1 = 0.0087	–	731.31
840 kPa, x1 = 0.1302	–	910.67
840 kPa, x1 = 0.7501	–	1131.82
880 kPa, x1 = 0.4988	–	1088.22
960 kPa, x1 = 0.2626	–	1006.13
5010 kPa, x1 = 0.7501	–	1134.65
5320 kPa, x1 = 0.2626	–	1009.96
5410 kPa, x1 = 0.0087	–	738.04
5410 kPa, x1 = 0.9102	–	1152.54
5450 kPa, x1 = 0.1302	–	915.31
5470 kPa, x1 = 0.4988	–	1091.64
5500 kPa, x1 = 0.0433	–	804.09
10030 kPa, x1 = 0.9102	–	1155.38
10070 kPa, x1 = 0.2626	–	1014.1
10080 kPa, x1 = 0.4988	–	1095
10280 kPa, x1 = 0.1302	–	919.98
10320 kPa, x1 = 0.7501	–	1138.17
10390 kPa, x1 = 0.0087	–	744.76
10780 kPa, x1 = 0.0433	–	810.45
15090 kPa, x1 = 0.7501	–	1141.24
15170 kPa, x1 = 0.1302	–	924.53
15230 kPa, x1 = 0.2626	–	1018.44
15390 kPa, x1 = 0.0433	–	815.67
15430 kPa, x1 = 0.4988	–	1098.81
15450 kPa, x1 = 0.0087	–	751.2
15720 kPa, x1 = 0.9102	–	1158.79
20090 kPa, x1 = 0.2626	–	1022.37
20140 kPa, x1 = 0.9102	1177.87	–
20210 kPa, x1 = 0.0433	–	820.81
20370 kPa, x1 = 0.1302	949.49	–
20420 kPa, x1 = 0.1302	–	929.19
20420 kPa, x1 = 0.2626	1040.92	–
20420 kPa, x1 = 0.7501	–	1144.57
20440 kPa, x1 = 0.0087	779.62	–
20580 kPa, x1 = 0.0087	–	757.35
20610 kPa, x1 = 0.4988	–	1102.41
20610 kPa, x1 = 0.9102	–	1161.64
24990 kPa, x1 = 0.0433	–	825.57
25080 kPa, x1 = 0.7501	–	1147.41
25180 kPa, x1 = 0.0433	846.4	–
25270 kPa, x1 = 0.1302	953.3	–
25310 kPa, x1 = 0.2626	1044.36	–
25310 kPa, x1 = 0.4988	1122.86	–
25320 kPa, x1 = 0.0087	784.47	–
25330 kPa, x1 = 0.1302	–	933.36
25340 kPa, x1 = 0.2626	–	1026.45
25340 kPa, x1 = 0.4988	–	1105.63
25580 kPa, x1 = 0.0087	–	762.96
25620 kPa, x1 = 0.7501	1164.19	–
25620 kPa, x1 = 0.9102	1180.73	–
25830 kPa, x1 = 0.9102	–	1164.62
29810 kPa, x1 = 0.1302	–	936.98
30070 kPa, x1 = 0.7501	1166.56	–
30080 kPa, x1 = 0.2626	–	1029.97
30080 kPa, x1 = 0.4988	–	1108.78
30090 kPa, x1 = 0.4988	1125.66	–
30140 kPa, x1 = 0.9102	1183.03	1167.01
30150 kPa, x1 = 0.0087	789.02	–
30160 kPa, x1 = 0.0433	850.67	–
30210 kPa, x1 = 0.2626	1047.7	–
30410 kPa, x1 = 0.7501	–	1150.55
30560 kPa, x1 = 0.1302	957.16	–
35010 kPa, x1 = 0.7501	1169.13	–
35080 kPa, x1 = 0.2626	1050.92	–
35120 kPa, x1 = 0.0087	793.42	–
35260 kPa, x1 = 0.4988	1128.6	–
35420 kPa, x1 = 0.1302	960.46	–
35740 kPa, x1 = 0.0433	855.14	–
35740 kPa, x1 = 0.9102	1185.8	–
39640 kPa, x1 = 0.0087	797.19	–
39720 kPa, x1 = 0.1302	963.19	–
39920 kPa, x1 = 0.2626	1054.02	–
39920 kPa, x1 = 0.4988	1131.18	–
39980 kPa, x1 = 0.9102	1187.84	–
39990 kPa, x1 = 0.7501	1171.65	–
40010 kPa, x1 = 0.0433	858.32	–
